Details: from C=Cc1ccc(N2C(=O)N=C(NC3CCCCC3)C23CCN(Cc2ccc(I)cc2)CC3)cc1; cc_pd bond; 2 steps

O=C1N=C(NC2CCCCC2)C23CCN(CC2)Cc2ccc(cc2)CCc2ccc(cc2)N13
ring closure, yield of all isomers: 2.3%

— patent US8399473
